Results as given in ChEMBL document CHEMBL1158745, “Guttiferone I, a new prenylated benzophenone from Garcinia humilis as a liver X receptor ligand” (J Nat Prod, 2005).

Experiments:
[1] = target: Liver X receptor (LXR alpha AND LXR beta) (Homo sapiens) (UniProt Q13133+P55055); test: Selectivity ratio of IC50 for human LXRbeta to IC50 for human LXRalpha; assay type: protein assay
[2] = target: T1, Oxysterols receptor LXR-alpha (Homo sapiens, UniProt Q13133); test: Displacement of [3H2]F3-methylAA from human LXRalpha expressed in Escherichia coli BL21 cells by scintillation proximity assay
T1 sequence (Q13133 whole entry): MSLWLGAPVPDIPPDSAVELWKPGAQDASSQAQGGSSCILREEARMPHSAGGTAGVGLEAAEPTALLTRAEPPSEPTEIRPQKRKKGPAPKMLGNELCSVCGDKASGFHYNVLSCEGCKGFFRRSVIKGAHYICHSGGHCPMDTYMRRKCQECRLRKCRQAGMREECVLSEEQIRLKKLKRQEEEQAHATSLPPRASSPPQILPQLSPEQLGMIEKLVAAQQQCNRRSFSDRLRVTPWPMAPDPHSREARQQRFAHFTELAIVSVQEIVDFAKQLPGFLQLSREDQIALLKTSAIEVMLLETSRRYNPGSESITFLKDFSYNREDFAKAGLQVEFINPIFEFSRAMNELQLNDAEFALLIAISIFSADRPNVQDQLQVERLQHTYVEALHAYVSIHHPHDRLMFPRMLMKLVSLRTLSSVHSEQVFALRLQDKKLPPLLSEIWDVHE

[3] = target: T2, Oxysterols receptor LXR-beta (Homo sapiens, UniProt P55055); test: Displacement of [3H2]F3-methylAA from human LXRbeta expressed in Escherichia coli BL21 cells by scintillation proximity assay
T2 sequence (P55055 whole entry): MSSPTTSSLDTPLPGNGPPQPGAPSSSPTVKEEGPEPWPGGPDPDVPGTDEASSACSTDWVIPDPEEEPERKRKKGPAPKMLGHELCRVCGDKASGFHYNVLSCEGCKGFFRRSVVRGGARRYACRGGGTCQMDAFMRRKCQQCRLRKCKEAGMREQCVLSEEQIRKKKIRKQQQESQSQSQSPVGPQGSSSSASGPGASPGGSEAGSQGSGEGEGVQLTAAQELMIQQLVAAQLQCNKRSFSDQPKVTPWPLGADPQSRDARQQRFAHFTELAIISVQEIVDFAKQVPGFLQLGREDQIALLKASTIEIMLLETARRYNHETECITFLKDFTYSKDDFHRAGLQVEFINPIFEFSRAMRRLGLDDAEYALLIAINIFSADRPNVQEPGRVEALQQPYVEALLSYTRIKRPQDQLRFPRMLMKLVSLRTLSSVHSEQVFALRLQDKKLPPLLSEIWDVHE

CC(C)=CCC/C(C)=C/C[C@H]1C[C@]2(CC=C(C)C)C(=O)[C@@](CC=C(C)C)(C(=O)C(C(=O)c3ccc(O)c(O)c3)=C2O)[C@]1(C)CCC=C(C)C [GUTTIFERONE I] showed a Ratio IC50 [1] of 5, an IC50 [2] of 3.4 µM and an IC50 [3] of over 15 µM.
